Test results as given in US20250368647A1, “NITROGEN CONTAINING CONDENSED 2,3-DIHYDROQUINAZOLINONE COMPOUNDS AS NAV1.8 INHIBITORS” (GLAXOSMITHKLINE INTELLECTUAL PROPERTY DEVELOPMENT LIMITED, priority 2022, published 2025).
Where a name gives a salt, the structure may show the parent alone.

target: human Nav1.8 (Homo sapiens (Human), UniProt Q9Y5Y9); assay: QPatch 48 HTX voltage-clamp electrophysiology, half inactivation state (V1/2) protocol, HEK293-Nav1.8 cells; type: cell-based; conditions: HEK293 cells expressing human Nav1.8, human Navβ1 and human TREK1, P2 current
Outline: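 HEK293 cells co-expressing Navβ1 and TREK1 were voltage-clamped from −100 mV: a 20 ms step to 0 mV, 8 s inactivation at −46 mV, 20 ms at −100 mV, then a 20 ms P2 test step to 0 mV, repeated every 15 s. P2 current was normalized to vehicle and full block, corrected for run-down, and Hill-fitted (4–6 concentrations) for IC50.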

Chain of human Nav1.8 (Q9Y5Y9 whole entry): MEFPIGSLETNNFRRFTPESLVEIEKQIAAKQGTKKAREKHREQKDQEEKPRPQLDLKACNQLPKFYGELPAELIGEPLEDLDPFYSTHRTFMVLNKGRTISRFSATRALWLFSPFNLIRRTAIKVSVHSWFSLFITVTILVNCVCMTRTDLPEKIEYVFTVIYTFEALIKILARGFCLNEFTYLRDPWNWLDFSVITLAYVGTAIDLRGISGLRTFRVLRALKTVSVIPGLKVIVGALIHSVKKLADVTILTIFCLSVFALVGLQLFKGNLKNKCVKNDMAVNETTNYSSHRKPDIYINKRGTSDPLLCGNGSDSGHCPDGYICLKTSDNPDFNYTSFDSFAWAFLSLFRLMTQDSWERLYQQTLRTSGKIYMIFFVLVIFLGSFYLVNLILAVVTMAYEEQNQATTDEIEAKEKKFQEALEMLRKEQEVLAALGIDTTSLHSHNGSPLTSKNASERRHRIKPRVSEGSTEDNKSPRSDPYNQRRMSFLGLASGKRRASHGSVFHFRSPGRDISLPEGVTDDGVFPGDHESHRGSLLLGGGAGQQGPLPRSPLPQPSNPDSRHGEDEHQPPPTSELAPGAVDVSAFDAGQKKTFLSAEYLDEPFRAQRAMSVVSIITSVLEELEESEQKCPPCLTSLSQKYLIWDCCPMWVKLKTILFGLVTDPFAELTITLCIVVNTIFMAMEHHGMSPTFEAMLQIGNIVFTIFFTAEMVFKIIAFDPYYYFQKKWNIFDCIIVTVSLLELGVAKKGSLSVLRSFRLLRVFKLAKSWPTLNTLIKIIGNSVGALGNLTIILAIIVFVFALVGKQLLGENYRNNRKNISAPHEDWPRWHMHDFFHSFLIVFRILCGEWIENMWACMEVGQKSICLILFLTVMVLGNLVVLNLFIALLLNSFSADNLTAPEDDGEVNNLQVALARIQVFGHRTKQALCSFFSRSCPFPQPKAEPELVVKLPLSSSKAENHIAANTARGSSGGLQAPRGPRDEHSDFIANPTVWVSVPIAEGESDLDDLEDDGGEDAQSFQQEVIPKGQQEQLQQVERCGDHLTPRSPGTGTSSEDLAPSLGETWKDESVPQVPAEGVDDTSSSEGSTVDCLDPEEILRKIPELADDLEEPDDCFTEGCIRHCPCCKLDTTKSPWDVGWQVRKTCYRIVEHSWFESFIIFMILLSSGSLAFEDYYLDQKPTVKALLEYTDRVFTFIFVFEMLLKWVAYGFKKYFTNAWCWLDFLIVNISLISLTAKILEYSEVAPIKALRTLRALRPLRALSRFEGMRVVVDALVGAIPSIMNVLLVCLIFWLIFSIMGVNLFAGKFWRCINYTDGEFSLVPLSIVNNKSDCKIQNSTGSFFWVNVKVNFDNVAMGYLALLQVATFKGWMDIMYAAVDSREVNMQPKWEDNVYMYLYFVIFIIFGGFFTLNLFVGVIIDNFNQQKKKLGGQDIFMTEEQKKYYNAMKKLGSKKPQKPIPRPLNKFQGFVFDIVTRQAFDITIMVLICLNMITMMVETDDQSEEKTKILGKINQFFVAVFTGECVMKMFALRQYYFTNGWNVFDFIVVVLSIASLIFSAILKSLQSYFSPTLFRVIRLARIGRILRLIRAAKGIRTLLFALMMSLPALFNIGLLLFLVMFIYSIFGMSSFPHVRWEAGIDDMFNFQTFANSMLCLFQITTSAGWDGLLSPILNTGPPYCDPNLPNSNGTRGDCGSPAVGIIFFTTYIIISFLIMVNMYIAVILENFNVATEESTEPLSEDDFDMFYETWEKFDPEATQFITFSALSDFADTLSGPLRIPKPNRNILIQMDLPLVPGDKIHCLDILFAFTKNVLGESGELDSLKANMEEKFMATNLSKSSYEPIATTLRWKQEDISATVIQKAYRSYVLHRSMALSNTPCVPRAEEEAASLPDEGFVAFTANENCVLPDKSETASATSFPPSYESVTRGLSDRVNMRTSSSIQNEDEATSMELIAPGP
Chain of human Nav1.8 (Q07699 19-218 partner): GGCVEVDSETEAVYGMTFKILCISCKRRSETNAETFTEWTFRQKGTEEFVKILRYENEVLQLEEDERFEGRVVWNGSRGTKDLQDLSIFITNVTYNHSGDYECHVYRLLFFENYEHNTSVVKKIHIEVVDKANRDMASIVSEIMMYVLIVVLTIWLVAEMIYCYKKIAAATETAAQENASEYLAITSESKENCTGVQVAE

| Compound | Nav1.8, pIC50 |
| --- | --- |
| O=C1c2cc(C(F)(F)F)ccc2N2CN1c1ccc(=O)[nH]c1CCCCc1cc(F)ccc12 [Example 4, 8-Fluoro-2-(trifluoromethyl)-10,11,12,13-tetrahydro-19H-5,18-methanodibenzo[b,l]pyridino[3,2-f][1,5]diazacyclotridecine-15,19(14H)-dione] | 6.8 |
| O=C1c2cc(F)c(C(F)(F)F)cc2N2CN1c1ccc(=O)[nH]c1NCCOCc1cc(F)ccc12 [Example 129, 2^6,3^4-Difluoro-2^7-(trifluoromethyl)-1^1,1^2,2^1,2^2,2^3,2^4-hexahydro-5-oxa-8-aza-2(3,1)-quinazolina-1(5,6)-pyridina-3(1,2)-benzenacyclooctaphane-1^2,2^4-dione] | 6.4 |
| Cl.N#Cc1c(F)ccc2c1CNCCc1[nH]c(=O)ccc1N1CN2c2cc(C(F)(F)F)c(F)cc2C1=O [Example 82, 2,8-Difluoro-15,19-dioxo-3-(trifluoromethyl)-10,11,12,13,14,15-hexahydro-19H-5,18-methanodibenzo[c,f]pyrido[3,2-j][1,5,9]triazacyclotridecine-9-carbonitrile hydrochloride] | 7.9 |
| Cl.O=C1c2cc(F)c(C(F)(F)F)cc2N2CN1c1ccc(=O)[nH]c1CCNCCc1cc(F)ccc12 [Example 111, 2^6,3^4-Difluoro-2^7-(trifluoromethyl)-1^1,1^2,2^1,2^2,2^3,2^4-hexahydro-6-aza-2(3,1)-quinazolina-1(5,6)-pyridina-3(1,2)-benzenacyclooctaphane-1^2,2^4-dione hydrochloride] | 7.1 |
| O=C1c2cc(C(F)(F)F)ccc2N2CN1c1ccc(=O)[nH]c1/C=C/Cc1cc(F)ccc12 [Example 1, (E)-8-Fluoro-2-(trifluoromethyl)-13-hydro-10H, 18H,-5,17-methanodibenzo[b,k]pyrido[3,2-f][1,5]diazacyclododecine-14,18-dione] | 5.1 |
| C[C@H]1NCCc2[nH]c(=O)ccc2N2CN(c3cc(Cl)c(F)cc3C2=O)c2ccc(F)cc21 [Example 121, (10R)-3-chloro-2,8-difluoro-10-methyl-10,11,12,13-tetrahydro-19H-5,18-methanodibenzo[c,f]pyrido[3,2-j][1,5,9]triazacyclotridecine-15,19(14H)-dione] | 7.4 |
| O=C1c2cc(Cl)cnc2N2CN1c1ccc(=O)[nH]c1CCNCc1cc(F)ccc12 [Example 42, 2-Chloro-8-fluoro-10,11,12,13-tetrahydro-19H-5,18-methanodibenzo[c]dipyrido[2,3-f:3′,2′-j][1,5,9]triazacyclotridecine-15,19(14H)-dione] | 6.9 |
| Cl.O=C1c2cc(F)c(Br)cc2N2CN1c1ccc(=O)[nH]c1CCNCc1c2ccc(F)c1F [Example 62, 3-Bromo-2,8,9-trifluoro-10,11,12,13-tetrahydro-19H-5,18-methanodibenzo[c,f]pyrido[3,2-j][1,5,9]triazacyclotridecine-15,19(14H)-dione hydrochloride] | 8.2 |
| Cl.O=C1c2cc(F)c(C(F)(F)F)cc2N2CN1c1ccc(=O)[nH]c1NCCNCc1c2ccc(F)c1F [Example 135, 2^6,3^3,3^4-Trifluoro-2^7-(trifluoromethyl)-1^1,1^2,2^1,2^2,2^3,2^4-hexahydro-5,8-diaza-2(3,1)-quinazolina-1(5,6)-pyridina-3(1,2)-benzenacyclooctaphane-1^2,2^4-dione hydrochloride] | 7.4 |

Other lines, results leading:

| Nav1.8, pIC50 | Compound |
| --- | --- |
| 7.9 | O=C1c2cc(F)c(F)cc2N2CN1c1ccc(=O)[nH]c1NCCCc1cc(F)ccc12 [Example 91, 2,3,8-Trifluoro-10,11,12,13-tetrahydro-19H-5,18-methanodibenzo[f,i]pyrido[2,3-b]-[1,4,8]triazacyclotridecine-15,19(14H)-dione] |
| 5.7 | O=C1c2cc(C(F)(F)F)ccc2N2CN1c1ccc(=O)[nH]c1NCCOc1cc(F)ccc12 [Example 15, 8-Fluoro-2-(trifluoromethyl)-12,13-dihydro-11H,19H-5,18-methanodibenzo[i,j]pyrido[2,3-e][1]oxa[4,7,11]triazacyclotridecine-15,19(14H)-dione] |
| 7.8 | O=C1c2cc(C(F)(F)F)ccc2N2CN1c1ccc(=O)[nH]c1NCCCc1cc(F)ccc12 [Example 27, 8-Fluoro-2-(trifluoromethyl)-10,11,12,13-tetrahydro-19H-5,18-methanodibenzo[f,i]pyrido[2,3-b][1,4,8]triazocyclotridecine-15,19(14H)-dione] |
| 7.1 | O=C1c2ccc(C(F)(F)F)cc2N2CN1c1ccc(=O)[nH]c1CCCCc1cc(F)ccc12 [Example 6, 8-fluoro-3-(trifluoromethyl)-10,11,12,13-tetrahydro-19H-5,18-methanodibenzo[b,l]pyridino[3,2-f][1,5]diazacyclotridecine-15,19(14H)-dione] |
| 8.3 | O=C1c2cc(C(F)(F)F)ccc2N2CN1c1cc[n+]([O-])cc1CCCCCc1cc(F)ccc12 [Example 26, 3^4-Fluoro-2^4-oxo-2^6-(trifluoromethyl)-2^1,2^2,2^3,2^4-tetrahydro-2(3,1)-quinazolina-1(4,3)-pyridin-1-iuma-3(1,2)-benzenacyclooctaphan-1-oxide] |
| 7.3 | CC1NCCc2[nH]c(=O)ccc2N2CN(c3cc(C(F)(F)F)c(F)cc3C2=O)c2ccc(F)cc21 (racemic) [Example 117, 2,8-Difluoro-10-methyl-3-(trifluoromethyl)-10,11,12,13-tetrahydro-19H-5,18-methanodibenzo-[c,f]pyrido[3,2-j][1,5,9]triazacyclotridecine-15,19(14H)-dione hydrochloride] |
| 7.7 | N#Cc1cc2c(cc1F)C(=O)N1CN2c2ccc(F)c(F)c2CCCNc2[nH]c(=O)ccc21 [Example 99, 2,8,9-Trifluoro-15,19-dioxo-10,11,12,13,14,15-hexahydro-19H-5,18-methano-dibenzo [f,i]pyrido[2,3-b][1,4,8]triazacyclotridecine-3-carbonitrile] |
| 6.1 | COc1c(F)ccc2c1CNCCc1[nH]c(=O)ccc1N1CN2c2cc(F)c(F)cc2C1=O.O=CO [Example 70, 2,3,8-Trifluoro-9-methoxy-10,11,12,13-tetrahydro-19H-5,18-methanodibenzo-[c,f]pyrido[3,2-j][1,5,9]triazacyclotridecine-15,19(14H)-dione, Formic acid salt] |
| 6.7 | Cl.O=C1c2cc(F)c(F)cc2N2CN1c1ccc(=O)[nH]c1CCNCc1cc(F)ccc12 [Example 53, 2,3,8-Trifluoro-10,11,12,13-tetrahydro-19H-5,18-methanodibenzo[c,f]pyrido[3,2-j][1,5,9]triazacyclotridecine-15,19(14H)-dione hydrochloride] |

same assay, conditions: HEK293 cells expressing human Nav1.8, human Navβ1 and human TREK1, P2 current, read-out: Nav1.8, pIC50 (converted)

| Compound | IC50 [µM] |
| --- | --- |
| CC[C@@H]1NCCc2[nH]c(=O)ccc2N2CN(c3cc(C(F)(F)F)c(F)cc3C2=O)c2ccc(F)cc21 [Example 128, (10S)-10-ethyl-2,8-difluoro-3-(trifluoromethyl)-10,11,12,13-tetrahydro-19H-5,18-methanodibenzo[c,f]pyrido[3,2-j][1,5,9]triazacyclotridecine-15,19(14H)-dione] | 0.631 |
| C[C@@H]1CCNc2[nH]c(=O)ccc2N2CN(c3cc(C(F)(F)F)c(F)cc3C2=O)c2ccc(F)c(F)c21 [Example 133, (10R)-2,8,9-trifluoro-10-methyl-3-(trifluoromethyl)-10,11,12,13-tetrahydro-19H-5,18-methanodibenzo[f,i]pyrido[2,3-b][1,4,8]triazacyclotridecine-15,19(14H)-dione] | 0.0398 |
